{"source": "paper PMC6492180", "about": "“Cytome micronucleus assays with a metabolically competent human derived liver cell line (Huh6): A promising approach for routine testing of chemicals?” (Environmental and Molecular Mutagenesis, 2018)", "key": {"[1]": {"system": "Human lymphocytes", "conditions": "Human lymphocytes, + S9, cited from earlier work"}, "[2]": {"system": "HepaRG", "conditions": "HepaRG; ref Le Hegarat et al., 2010; cited from earlier work"}, "[3]": {"system": "Huh6 cells", "experimental": "All experiments were performed in duplicate.\n3.8–4.0 × 10^5 cells per well were seeded into 6‐well plates with 3 mL of RPMI (4% FBS) for 12 hr, then dilutions of stock solutions of the diagnostic mutagens were added for different time periods (4, 24, and 48 hr). In each experimental series solvent controls were included. Subsequently, the cells were washed twice with 3.0 mL medium. […] Finally, the cells were washed and trypsinised. Afterwards the cells were washed twice with 8.0 mL RPMI and collected on slides by cytocentrifugation (600 rpm, 5 min). The slides were air dried, fixed, and stained with DiffQuick according to the instructions of the manufacturer. For each experimental point, two cultures were tested per dose. From each culture ≥1,000 BN cells were evaluated under 400‐fold magnification (Nikon Photophot‐FXA, Tokyo, Japan). At least 2,000 binucleated cells were analyzed per dose for the determination of the different nuclear anomalies (MN, NBuds, and NBs).\nThe experiments were performed as described in the previous chapter. The cells were exposed only to one dose of the different mutagens and were cultivated after the seeding in 6‐well plates which contained 4% or 10% FBS in RPMI, respectively.\nData were evaluated by generalized linear model with Poisson counts. Chi‐square tests for overdispersion were applied. […] P values ≤0.05 were considered statistically significant.\n^150-60 000 cells were seeded in 6 well plates with 3 ml RPMI (4% FBS), subsequently different solutions of the test compound (dissolved in medium) were added. After treatment for different time periods, the cells was washed and processed as described in the Material and Method section. […] From each culture 1000 binoculated cells were evaluated. BN-MN – number of micronucleated cells; MN - total number of micronuclei; CBPI – cytokinesis-block proliferation index\n^1The experiments were conducted essentially as described in the footnote of Table S1A-I. *p≤0.05"}, "[4]": {"system": "HepG2", "conditions": "HepG2; ref Knasmuller et al., 1999; cited from earlier work"}, "[5]": {"conditions": "ref IARC (2018); cited from earlier work"}, "[6]": {"conditions": "10% FBS, 24 hr treatment, 50 µM"}, "[7]": {"conditions": "10% FBS, 24 hr treatment, 100 µM"}}, "note": "Read-outs that look alike come from different tables or passages of the source. Marks after values point to notes of the source that are not given here.", "data": [{"molecule": "Cn1c(N)nc2c3cccnc3ccc21", "note": "[IQ, 2‐Amino‐3‐methyl‐3H‐imidazo[4,5‐f]quinoline]", "values": [{"measurement": "Lowest effective concentration (LOEC) in micronucleus experiments", "setting": "[1]; ref Fowler et al., 2014", "value": 2200.0, "unit": "µM"}, {"measurement": "Lowest effective concentration (LOEC) in micronucleus experiments", "setting": "[1]; ref Katic et al., 2010", "value": 250.0, "unit": "µM"}, {"measurement": "Lowest effective concentration (LOEC) in micronucleus experiments", "setting": "[2]", "value": "Negative"}, {"measurement": "NOEC (highest no observable effect concentration tested)", "setting": "[2]", "value": 500, "unit": "µM"}, {"measurement": "MN effects after 24 hr (or longer) compared with 4 hr treatment (in words)", "setting": "[3]; 4% FBS", "value": "more pronounced effects"}, {"measurement": "BN-MN (number of micronucleated cells)", "setting": "[3]; 4% FBS, 4hrs, 25 µM", "value": "16.0 ± 2.8 ‰"}, {"measurement": "Bridges", "setting": "[3]; 4% FBS, 4hrs, 25 µM", "value": "0.5 ± 0.7 ‰"}, {"measurement": "Buds", "setting": "[3]; 4% FBS, 4hrs, 25 µM", "value": "17.5 ± 2.1 ‰"}, {"measurement": "CBPI", "setting": "[3]; 4% FBS, 4hrs, 25 µM", "value": "1.9 ± 0.1"}, {"measurement": "MN (total number of micronuclei)", "setting": "[3]; 4% FBS, 4hrs, 25 µM", "value": "16.0 ± 2.8 ‰"}, {"measurement": "BN-MN (number of micronucleated cells)", "setting": "[3]; 4% FBS, 4hrs, 50 µM", "value": "18.0 ± 4.2 ‰"}, {"measurement": "Bridges", "setting": "[3]; 4% FBS, 4hrs, 50 µM", "value": "0.5 ± 0.7 ‰"}, {"measurement": "Buds", "setting": "[3]; 4% FBS, 4hrs, 50 µM", "value": "16.5 ± 0.7 ‰"}, {"measurement": "CBPI", "setting": "[3]; 4% FBS, 4hrs, 50 µM", "value": "1.8 ± 0.1"}, {"measurement": "MN (total number of micronuclei)", "setting": "[3]; 4% FBS, 4hrs, 50 µM", "value": "19.0 ± 4.2 ‰"}, {"measurement": "BN-MN (number of micronucleated cells)", "setting": "[3]; 4% FBS, 4hrs, 100 µM", "value": "23.5 ± 5.0* ‰"}, {"measurement": "Bridges", "setting": "[3]; 4% FBS, 4hrs, 100 µM", "value": "1.5 ± 0.7 ‰"}, {"measurement": "Buds", "setting": "[3]; 4% FBS, 4hrs, 100 µM", "value": "21.5 ± 2.1* ‰"}, {"measurement": "CBPI", "setting": "[3]; 4% FBS, 4hrs, 100 µM", "value": "1.9 ± 0.0"}, {"measurement": "MN (total number of micronuclei)", "setting": "[3]; 4% FBS, 4hrs, 100 µM", "value": "24.5 ± 5.0* ‰"}, {"measurement": "BN-MN (number of micronucleated cells)", "setting": "[3]; 4% FBS, 24hrs, 25 µM", "value": "18.5 ± 0.7 ‰"}, {"measurement": "Bridges", "setting": "[3]; 4% FBS, 24hrs, 25 µM", "value": "0.0 ± 0.0 ‰"}, {"measurement": "Buds", "setting": "[3]; 4% FBS, 24hrs, 25 µM", "value": "10.5 ± 2.1 ‰"}, {"measurement": "CBPI", "setting": "[3]; 4% FBS, 24hrs, 25 µM", "value": "1.9 ± 0.0"}, {"measurement": "MN (total number of micronuclei)", "setting": "[3]; 4% FBS, 24hrs, 25 µM", "value": "19.5 ± 0.7 ‰"}, {"measurement": "BN-MN (number of micronucleated cells)", "setting": "[3]; 4% FBS, 24hrs, 50 µM", "value": "26.0 ± 1.4* ‰"}, {"measurement": "Bridges", "setting": "[3]; 4% FBS, 24hrs, 50 µM", "value": "2.0 ± 0.0 ‰"}, {"measurement": "Buds", "setting": "[3]; 4% FBS, 24hrs, 50 µM", "value": "18.5 ± 2.1* ‰"}, {"measurement": "CBPI", "setting": "[3]; 4% FBS, 24hrs, 50 µM", "value": "1.7 ± 0.0"}, {"measurement": "MN (total number of micronuclei)", "setting": "[3]; 4% FBS, 24hrs, 50 µM", "value": "26.5 ± 0.7 ‰"}, {"measurement": "BN-MN (number of micronucleated cells)", "setting": "[3]; 4% FBS, 24hrs, 100 µM", "value": "39.0 ± 5.7* ‰"}, {"measurement": "Bridges", "setting": "[3]; 4% FBS, 24hrs, 100 µM", "value": "5.5 ± 0.7 ‰"}, {"measurement": "Buds", "setting": "[3]; 4% FBS, 24hrs, 100 µM", "value": "32.5 ± 5.0* ‰"}, {"measurement": "CBPI", "setting": "[3]; 4% FBS, 24hrs, 100 µM", "value": "2.0 ± 0.1"}, {"measurement": "MN (total number of micronuclei)", "setting": "[3]; 4% FBS, 24hrs, 100 µM", "value": "44.0 ± 1.4* ‰"}, {"measurement": "BN-MN (number of micronucleated cells)", "setting": "[3]; 4% FBS, 48hrs, 25 µM", "value": "20.5 ± 2.1 ‰"}, {"measurement": "Bridges", "setting": "[3]; 4% FBS, 48hrs, 25 µM", "value": "0.0 ± 0.0 ‰"}, {"measurement": "Buds", "setting": "[3]; 4% FBS, 48hrs, 25 µM", "value": "22.0 ± 4.2 ‰"}, {"measurement": "CBPI", "setting": "[3]; 4% FBS, 48hrs, 25 µM", "value": "1.9 ± 0.1"}, {"measurement": "MN (total number of micronuclei)", "setting": "[3]; 4% FBS, 48hrs, 25 µM", "value": "21.5 ± 2.1 ‰"}, {"measurement": "BN-MN (number of micronucleated cells)", "setting": "[3]; 4% FBS, 48hrs, 50 µM", "value": "32.0 ± 5.7* ‰"}, {"measurement": "Bridges", "setting": "[3]; 4% FBS, 48hrs, 50 µM", "value": "1.0 ± 0.0 ‰"}, {"measurement": "Buds", "setting": "[3]; 4% FBS, 48hrs, 50 µM", "value": "29.5 ± 2.1* ‰"}, {"measurement": "CBPI", "setting": "[3]; 4% FBS, 48hrs, 50 µM", "value": "1.8 ± 0.1"}, {"measurement": "MN (total number of micronuclei)", "setting": "[3]; 4% FBS, 48hrs, 50 µM", "value": "32.5 ± 6.4* ‰"}, {"measurement": "BN-MN (number of micronucleated cells)", "setting": "[3]; 4% FBS, 48hrs, 100 µM", "value": "40.0 ± 2.8* ‰"}, {"measurement": "Bridges", "setting": "[3]; 4% FBS, 48hrs, 100 µM", "value": "3.0 ± 1.4 ‰"}, {"measurement": "Buds", "setting": "[3]; 4% FBS, 48hrs, 100 µM", "value": "35.5 ± 3.5* ‰"}, {"measurement": "CBPI", "setting": "[3]; 4% FBS, 48hrs, 100 µM", "value": "1.7 ± 0.1"}, {"measurement": "MN (total number of micronuclei)", "setting": "[3]; 4% FBS, 48hrs, 100 µM", "value": "47.5 ± 3.5* ‰"}, {"measurement": "BN-MN (number of micronucleated cells)", "setting": "[3]; [6]", "value": "47.5 ± 3.5*"}, {"measurement": "Bridges", "setting": "[3]; [6]", "value": "0 ± 0.0"}, {"measurement": "Buds", "setting": "[3]; [6]", "value": "42 ± 2.8"}, {"measurement": "CBPI", "setting": "[3]; [6]", "value": "1.9 ± 0.0"}, {"measurement": "MN (total number of micronuclei)", "setting": "[3]; [6]", "value": "51.0 ± 1.4*"}, {"measurement": "BN-MN (number of micronucleated cells)", "setting": "[3]; [7]", "value": "63.5 ± 6.4*"}, {"measurement": "Bridges", "setting": "[3]; [7]", "value": "0.5 ± 0.7"}, {"measurement": "Buds", "setting": "[3]; [7]", "value": "49 ± 1.4"}, {"measurement": "CBPI", "setting": "[3]; [7]", "value": "1.8 ± 0.1"}, {"measurement": "MN (total number of micronuclei)", "setting": "[3]; [7]", "value": "68.5 ± 5.0*"}, {"measurement": "MN frequencies with 10% serum compared with 4% serum (in words)", "setting": "[3]; 24 hr treatment", "value": "stronger effects"}, {"measurement": "Lowest effective concentration (LOEC) in micronucleus experiments", "setting": "[3]; Huh6", "value": 50.0, "unit": "µM"}, {"measurement": "Lowest effective concentration (LOEC) in micronucleus experiments", "setting": "[4]", "value": "300.0 (Knasmuller et al., 1999) μM"}, {"measurement": "IARC classification", "setting": "[5]", "value": "Formation of guanine adducts, formation of DNA‐reactive metabolites which cause DNA‐adducts; activation: CYP1A2 and NAT; detoxification: GSTs and SULTs; IARC: Group 2A"}]}]}
